Laboratory results: patent US20220056043A1, “NITROGEN-CONTAINING FUSED CYCLIC COMPOUND, PREPARATION METHOD THEREFOR AND USE THEREOF” (SICHUAN KELUN-BIOTECH BIOPHARMACEUTICAL CO., LTD., priority 2019, published 2022)

Biological target: T1, hTLR8 (Homo sapiens, UniProt Q9NR97)
T1 construct: host or cells: HEK-Blue hTLR8 cells
T1 sequence (Q9NR97 27-1041): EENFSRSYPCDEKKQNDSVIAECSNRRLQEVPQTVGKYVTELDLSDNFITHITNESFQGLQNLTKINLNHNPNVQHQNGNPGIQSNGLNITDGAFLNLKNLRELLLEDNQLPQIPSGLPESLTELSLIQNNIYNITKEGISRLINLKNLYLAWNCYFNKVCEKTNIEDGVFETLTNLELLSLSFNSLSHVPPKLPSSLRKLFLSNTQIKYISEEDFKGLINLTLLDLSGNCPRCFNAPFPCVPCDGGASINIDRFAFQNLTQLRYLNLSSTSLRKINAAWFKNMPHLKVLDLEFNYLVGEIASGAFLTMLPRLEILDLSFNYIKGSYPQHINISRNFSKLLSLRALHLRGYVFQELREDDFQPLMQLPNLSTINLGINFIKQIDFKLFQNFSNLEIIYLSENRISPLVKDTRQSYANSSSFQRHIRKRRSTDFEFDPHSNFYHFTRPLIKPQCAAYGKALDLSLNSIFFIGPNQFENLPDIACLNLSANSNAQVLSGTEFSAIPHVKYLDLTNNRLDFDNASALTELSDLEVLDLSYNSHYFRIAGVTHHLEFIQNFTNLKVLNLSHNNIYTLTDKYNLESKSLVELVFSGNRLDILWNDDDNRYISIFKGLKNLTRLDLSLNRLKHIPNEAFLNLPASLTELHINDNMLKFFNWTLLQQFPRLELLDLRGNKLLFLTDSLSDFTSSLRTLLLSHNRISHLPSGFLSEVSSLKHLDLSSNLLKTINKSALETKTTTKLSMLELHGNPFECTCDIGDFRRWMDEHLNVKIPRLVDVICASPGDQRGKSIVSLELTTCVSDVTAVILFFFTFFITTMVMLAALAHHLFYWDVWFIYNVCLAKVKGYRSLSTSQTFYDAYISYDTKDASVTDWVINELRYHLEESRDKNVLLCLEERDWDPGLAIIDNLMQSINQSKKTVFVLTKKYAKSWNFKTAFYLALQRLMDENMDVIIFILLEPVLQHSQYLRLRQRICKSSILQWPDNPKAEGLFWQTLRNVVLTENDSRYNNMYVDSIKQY
Assay: Agonistic effect on hTLR8, HEK-Blue hTLR8 cells, alkaline phosphatase secretion
Assay type: cell-based
Settings: 16 hours
Procedure: Experimental Example 4: Agonistic Effect of the Compound of the Invention on hTLR8
In this test, the secretion of alkaline phosphatase in HEK-Blue cells was measured to test the activating effect of the compound of the invention on TLR8 signaling pathway, so as to evaluate the specificity of the agonistic effect of the compound on NLRP3 pathway.
Reagents: DMEM (High glucose); FBS (fetal bovine serum) (Gibco); QUANTI-Blue/InvivoGen/rep-qb2
Cells: HEK-Blue™ hTLR8 cells (human TLR 8 cells) (InvivoGen) Experimental Procedures:
1) The HEK-Blue™ hTLR8 cells in a logarithmic growth phase were trypsinized and resuspended in the medium to a concentration of 2×10^6 cells/mL. 50 μL/well of the cell suspension was added to a 96-well plate. An appropriate amount of 10 mM DMSO solution of the compound to be tested was taken and diluted to a concentration of 2× test concentration with the medium. 50 μL/well was added to the cells in the 96-well plate. The plate was incubated in an incubator at 37° C. and 5% CO2 for 16 hours. The medium was DMEM (High glucose) containing 10% FBS. 2) After the cell incubation, 10 μL of cell culture supernatant was transferred to a 96-well plate. 90 μL/well of QUANTI-Blue detection solution was added, and the mixture was incubated at 37° C. for 3 hours. OD620 was read using a microplate reader.
3) The EC50 of the effect of the tested compound to stimulate hTLR8 was fitted by the GraphPad software log(agonist) vs. response—Variable slope four-parameter method.

Structure (SMILES)	EC50 [µM]
CC(C)CNc1cc(N)nc2cc(-c3ccn[nH]3)sc12 [Compound 141, N^7-isobutyl-2-(1H-pyrazol-5-yl)thieno[3,2-b]pyridin-5,7-diamine]	> 100
Nc1cc(N[C@H]2[C@@H]3CNC[C@@H]32)c2sc(-c3ccn[nH]3)cc2n1 [Compound 142, N^7-((1R,5S,6S)-3-azabicyclo[3.1.0]hex-6-yl)-2-(1H-pyrazol-5-yl)thieno[3,2-b]pyridin-5,7-diamine]	> 100
Nc1cc(NC2CCC(F)(F)CC2)c2sc(-c3ccn[nH]3)cc2n1 [Compound 143, N^7-(4,4-difluorocyclohexyl)-2-(1H-pyrazol-5-yl)thieno[3,2-b]pyridin-5,7-diamine]	> 100
CC(C)C[C@H](CO)Nc1cc(N)nc2cc(-c3ccn[nH]3)sc12 [Compound 144, (R)-2-((5-amino-2-(1H-pyrazol-5-yl)thieno[3,2-b]pyridin-7-yl)amino)-4-methyl-1-pentanol]	> 100
CCC(=O)N(CC)CCNc1cc(N)nc2cc(-c3ccn[nH]3)sc12 [Compound 145, N-(2-((5-amino-2-(1H-pyrazol-5-yl)thieno[3,2-b]pyridin-7-yl)amino)ethyl)-N-ethylpropionamide]	> 100
CCN(CCNc1cc(N)nc2cc(-c3ccn[nH]3)sc12)C(=O)C1CC1 [Compound 146, N-(2-((5-amino-2-(1H-pyrazol-5-yl)thieno[3,2-b]pyridin-7-yl)amino)ethyl)-N-ethylcyclopropyl formamide]	> 100
Nc1cc(N[C@H]2CC[C@H](O)CC2)c2sc(-c3ccn[nH]3)cc2n1 [Compound 147, (1R,4R)-4-((5-amino-2-(1H-pyrazol-5-yl)thieno[3,2-b]pyridin-7-yl)amino)cyclohexanol]	> 100
C[C@@H]1CN(c2cc(N)nc3cc(-c4ccn[nH]4)sc23)C[C@@H](C)O1 [Compound 148, 7-((2R,6R)-2,6-dimethylmorpholino)-2-(1H-pyrazol-5-yl)thieno[3,2-b]pyridine-5-amine]	> 100
Cc1noc(C)c1CNc1cc(N)nc2cc(-c3ccn[nH]3)sc12 [Compound 149, N^7-((3,5-dimethylisoxazol-4-yl)methyl)-2-(1H-pyrazol-5-yl)thieno[3,2-b]pyridine-5,7-diamine]	> 100
Nc1cc(NCCCN2CCCC2=O)c2sc(-c3ccn[nH]3)cc2n1 [Compound 150]	> 100
Cc1c(-c2cc[nH]n2)sc2c(NCC(C)(C)CO)cc(N)nc12 [Compound 151]	> 100
COCCNc1cc(N)nc2c(C)c(-c3cc[nH]n3)sc12 [Compound 152]	> 100

The remaining lines, values ahead:

EC50 [µM]	Structure (SMILES)
> 100	CC(C)(O)CNc1cc(N)nc2cc(-c3ccn[nH]3)sc12 [Compound 28, (1-(5-amino-2-(1H-pyrazol-5-yl)thieno[3,2-b]pyridin-7-yl)amino)-2-methyl-2-propanol]
> 100	C[C@@H](O)CNc1cc(N)nc2cc(-c3ccn[nH]3)sc12 [Compound 29]
> 100	Nc1cc(NC(CCO)c2ccccc2)c2sc(-c3ccn[nH]3)cc2n1 (centres unmarked) [Compound 123, 3-((5-amino-2-(1H-pyrazol-5-yl)thieno[3,2-b]pyridin-7-yl)amino)-3-phenyl-1-propanol]
> 100	Nc1cc(NCC2CCC2)c2sc(-c3ccn[nH]3)cc2n1 [Compound 126, N^7-(cyclobutylmethyl)-2-(1H-pyrazol-5-yl)thieno[3,2-b]pyridine-5,7-diamine]
> 100	CN(CCCO)c1cc(N)nc2cc(-c3ccn[nH]3)sc12 [Compound 127, 3-((5-amino-2-(1H-pyrazol-5-yl)thieno[3,2-b]pyridin-7-yl)(methyl)amino)-1-propanol]
> 100	C[C@H]1CC[C@H](Nc2cc(N)nc3cc(-c4ccn[nH]4)sc23)CC1 [Compound 128, N^7-((1R,4R)-4-methylcyclohexyl)-2-(1H-pyrazol-5-yl)thieno[3,2-b]pyridine-5,7-diamine]
> 100	C[C@]1(O)C[C@@H](Nc2cc(N)nc3cc(-c4ccn[nH]4)sc23)C1 [Compound 129, (1s,3s)-3-((5-amino-2-(1H-pyrazol-5-yl)thieno[3,2-b]pyridin-7-yl)amino)-1-methylcyclobutanol]
> 100	C[C@H](Nc1cc(N)nc2cc(-c3ccn[nH]3)sc12)c1cccc(C(F)(F)F)c1 [Compound 131, (S)-2-(1H-pyrazol-5-yl)-N^7-(1-(3-(trifluoromethyl)phenyl)ethyl)thieno[3,2-b]pyridine-5,7-diamine]
> 100	CC[C@@H](CO)Nc1cc(N)nc2cc(-c3ccn[nH]3)sc12 [Compound 132, (S)-2-((5-amino-2-(1H-pyrazol-5-yl)thieno[3,2-b]pyridin-7-yl)amino)-1-butanol]
> 100	COC[C@@H](C)Nc1cc(N)nc2cc(-c3ccn[nH]3)sc12 [Compound 133, (R)—N^7-(1-methoxyprop-2-yl)-2-(1H-pyrazol-5-yl)thieno[3,2-b]pyridine-5,7-diamine]
> 100	Cc1cccnc1CNc1cc(N)nc2cc(-c3ccn[nH]3)sc12 [Compound 134, N^7-((3-methylpyridin-2-yl)methyl)-2-(1H-pyrazol-5-yl)thieno[3,2-b]pyridine-5,7-diamine]
> 100	Nc1cc(NCCN2CCCC2=O)c2sc(-c3ccn[nH]3)cc2n1 [Compound 135, 1-(2-((5-amino-2-(1H-pyrazol-5-yl)thieno[3,2-b]pyridin-7-yl)amino)ethyl)pyrrolidin-2-one]
> 100	Nc1cc(NCC(CO)CO)c2sc(-c3ccn[nH]3)cc2n1 [Compound 136]
> 100	CNC(=O)CNc1cc(N)nc2cc(-c3ccn[nH]3)sc12 [Compound 137, 2-((5-amino-2-(1H-pyrazol-5-yl)thieno[3,2-b]pyridin-7-yl)amino)-N-methylacetamide]
> 100	Nc1cc(NCC(=O)NC2CC2)c2sc(-c3ccn[nH]3)cc2n1 [Compound 138, 2-((5-amino-2-(1H-pyrazol-5-yl)thieno[3,2-b]pyridin-7-yl)amino)-N-cyclopropylacetamide]
> 100	CN(CCO)c1cc(N)nc2cc(-c3ccn[nH]3)sc12 [Compound 139, 2-((5-amino-2-(1H-pyrazol-5-yl)thieno[3,2-b]pyridin-7-yl)(methyl)amino)ethanol]
> 100	CCN(CCNc1cc(N)nc2cc(-c3ccn[nH]3)sc12)C(=O)Cc1cccc(C)c1 [Compound 140, N-(2-((5-amino-2-(1H-pyrazol-5-yl)thieno[3,2-b]pyridin-7-yl)amino)ethyl)-N-ethyl-2-(m-tolyl)acetamide]
